In ChEMBL document CHEMBL5344442, “Antiviral Activity of Lipophilic Nucleoside Tetraphosphate Compounds” (J Med Chem, 2024):

What was measured:
[1] = Lipophilicity of the compound assessed as retention time by RP-18-HPLC analysis; type: physicochemical
[2] = Drug metabolism in citrate-stabilized human plasma assessed as d4T formation by RP-18-HPLC analysis; type: ADME, cell-free
[3] = Drug metabolism in citrate-stabilized human plasma assessed as [hydroxy-[hydroxy-[hydroxy-[[(2S,5R)-5-(5-methyl-2,4-dioxo-pyrimidin-1-yl)-2,5-dihydrofuran-2-yl]methoxy]phosphoryl]oxy-phosphoryl]oxy-phosphoryl] octadecyl hydrogen phosphate formation by RP18-HPLC analysis; type: ADME, cell-free
[4] = Drug metabolism assessed as d4TTP metabolite formation in presence of pig liver esterase by RP-18-HPLC analysis; type: ADME, Sus scrofa; details: isolated protein
[5] = Drug metabolism in human CEM/0 cells assessed as d4TDP metabolite formation by RP18-HPLC analysis; type: ADME, cell-based; details: ccrf-cem
[6] = Drug metabolism in human CEM/0 cells assessed as d4TTP metabolite formation by RP18-HPLC analysis; type: ADME, cell-based; details: ccrf-cem
[7] = Drug metabolism assessed as [hydroxy-[hydroxy-[hydroxy-[[(2S,5R)-5-(5-methyl-2,4-dioxo-pyrimidin-1-yl)-2,5-dihydrofuran-2-yl]methoxy]phosphoryl]oxy-phosphoryl]oxy-phosphoryl] octadecyl hydrogen phosphate formation in presence of pig liver esterase by RP-18-HPLC analysis; type: ADME, Sus scrofa; details: isolated protein
[8] = Drug metabolism in human CEM/0 cells assessed as [hydroxy-[hydroxy-[hydroxy-[[(2S,5R)-5-(5-methyl-2,4-dioxo-pyrimidin-1-yl)-2,5-dihydrofuran-2-yl]methoxy]phosphoryl]oxy-phosphoryl]oxy-phosphoryl] octadecyl hydrogen phosphate formation by RP18-HPLC analysis; type: ADME, cell-based; details: ccrf-cem
[9] = Selectivity index, ratio of CC50 for cytotoxicity against human CEM/0 cells to EC50 for antiviral activity against HIV-2 ROD infected in human CEM/0 cells; type: toxicity, cell-based; details: read-out: Ratio CC50/EC50
[10] = test system: Human immunodeficiency virus 1; assay: Antiviral activity against HIV-1 HE infected in human CEM/0 cells assessed as inhibition of virus-induced cytopathogenicity measured after 4 to 5 days by microscopic analysis; type: functional, organism-based; details: Human immunodeficiency virus 1, HE, CCRF-CEM
[11] = Half life of the compound in PBS buffer at pH 7.3 by RP-18-HPLC analysis; type: physicochemical
[12] = test system: Human immunodeficiency virus 2; assay: Antiviral activity against HIV-2 ROD infected in human CEM/TK- cells assessed as inhibition of virus-induced cytopathogenicity measured after 4 to 5 days by microscopic analysis; type: functional, organism-based; details: Human immunodeficiency virus 2, ROD, CCRF-CEM
[13] = test system: Human immunodeficiency virus 2; assay: Antiviral activity against HIV-2 ROD infected in human CEM/0 cells assessed as inhibition of virus-induced cytopathogenicity measured after 4 to 5 days by microscopic analysis; type: functional, organism-based; details: Human immunodeficiency virus 2, ROD, CCRF-CEM
[14] = Selectivity index, ratio of CC50 for cytotoxicity against human CEM/TK- cells to EC50 for antiviral activity against HIV-2 ROD infected in human CEM/TK- cells; type: toxicity, cell-based; details: read-out: Ratio CC50/EC50
[15] = Drug metabolism in human CEM/0 cells assessed as half life of d4TTP by RP18-HPLC analysis; type: ADME, cell-based; details: ccrf-cem
[16] = Drug metabolism in PBS buffer assessed as d4TMP metabolite formation at pH 7.3 by RP-18-HPLC analysis; type: ADME
[17] = Cytotoxicity against human CEM/0 cells assessed as inhibition of cell proliferation; type: toxicity, cell-based, CCRF-CEM
[18] = Stability of compound assessed as pig liver esterase mediated hydrolysis by measuring half life by RP-18-HPLC analysis; type: ADME, tissue-based, Sus scrofa
[19] = Half life of the compound in human CEM/0 extracts by RP-18-HPLC analysis; type: ADME, CCRF-CEM; details: CEM/0 cell extracts
[20] = Drug metabolism in citrate-stabilized human plasma assessed as d4TMP formation by RP18-HPLC analysis; type: ADME, cell-free
[21] = Drug metabolism in citrate-stabilized human plasma assessed as [hydroxy-[hydroxy-[hydroxy-[[(2S,5R)-5-(5-methyl-2,4-dioxo-pyrimidin-1-yl)-2,5-dihydrofuran-2-yl]methoxy]phosphoryl]oxy-phosphoryl]oxy-phosphoryl]oxy-octadecyl-phosphinic acid formation by RP18-HPLC analysis; type: ADME, cell-free
[22] = Drug metabolism in citrate-stabilized human plasma assessed as d4TTP formation by RP18-HPLC analysis; type: ADME, cell-free
[23] = Drug metabolism in citrate-stabilized human plasma assessed as d4TDP formation by RP18-HPLC analysis; type: ADME, cell-free
[24] = Drug metabolism assessed as [hydroxy-[hydroxy-[hydroxy-[[(2S,5R)-5-(5-methyl-2,4-dioxo-pyrimidin-1-yl)-2,5-dihydrofuran-2-yl]methoxy]phosphoryl]oxy-phosphoryl]oxy-phosphoryl]oxy-octadecyl-phosphinic acid formation in presence of pig liver esterase by RP-18-HPLC analysis; type: ADME, Sus scrofa; details: isolated protein
[25] = Drug metabolism in human CEM/0 cells assessed as [hydroxy-[hydroxy-[hydroxy-[[(2S,5R)-5-(5-methyl-2,4-dioxo-pyrimidin-1-yl)-2,5-dihydrofuran-2-yl]methoxy]phosphoryl]oxy-phosphoryl]oxy-phosphoryl]oxy-octadecyl-phosphinic acid formation by RP18-HPLC analysis; type: ADME, cell-based; details: ccrf-cem
[26] = Drug metabolism in human CEM/0 cells assessed as [4-[[hydroxy-[hydroxy-[hydroxy-[hydroxy-[[(2S,5R)-5-(5-methyl-2,4-dioxo-pyrimidin-1-yl)-2,5-dihydrofuran-2-yl]methoxy]phosphoryl]oxy-phosphoryl]oxy-phosphoryl]oxy-phosphoryl]oxymethyl]phenyl]-decanoate formation by RP18-HPLC analysis; type: ADME, cell-based; details: ccrf-cem
[27] = Drug metabolism assessed as [4-[[hydroxy-[hydroxy-[hydroxy-[hydroxy-[[(2S,5R)-5-(5-methyl-2,4-dioxo-pyrimidin-1-yl)-2,5-dihydrofuran-2-yl]methoxy]phosphoryl]oxy-phosphoryl]oxy-phosphoryl]oxy-phosphoryl]oxymethyl]phenyl]-decanoate formation in presence of pig liver esterase by RP-18-HPLC analysis; type: ADME, Sus scrofa; details: isolated protein
[28] = Drug metabolism in human CEM/0 cells assessed as half life of d4T4P by RP18-HPLC analysis; type: ADME, cell-based; details: ccrf-cem
[29] = Drug metabolism in citrate-stabilized human plasma assessed as [4-[[hydroxy-[hydroxy-[hydroxy-[hydroxy-[[(2S,5R)-5-(5-methyl-2,4-dioxo-pyrimidin-1-yl)-2,5-dihydrofuran-2-yl]methoxy]phosphoryl]oxy-phosphoryl]oxy-phosphoryl]oxy-phosphoryl]oxymethyl]phenyl]-decanoate formation by RP-18-HPLC analysis; type: ADME, cell-free
[30] = Drug metabolism assessed as d4T4P metabolite formation in presence of pig liver esterase by RP-18-HPLC analysis; type: ADME, Sus scrofa; details: isolated protein

CCCCCCCCCCCCCCCCCCOP(=O)(OCC(CC)CCCC)OP(=O)(O)OP(=O)(O)OP(=O)(O)OC[C@@H]1C=C[C@H](n2cc(C)c(=O)[nH]c2=O)O1 (stereo partly drawn)
Retention_time [1]: 15.2 min

CCCCCCCCCCCCCCCCCCOP(=O)(O)OP(=O)(O)OP(=O)(O)OP(=O)(O)OC[C@@H]1C=C[C@H](n2cc(C)c(=O)[nH]c2=O)O1
Retention_time [1]: 13.3 min

CCCCCCCCCCCCCCCCCCOP(=O)(OCc1ccc(OC(=O)CCCC)cc1)OP(=O)(O)OP(=O)(O)OP(=O)(O)OC[C@@H]1C=C[C@H](n2cc(C)c(=O)[nH]c2=O)O1 (stereo partly drawn)
Retention_time [1]: 15.3 min
Drug metabolism [2]: Metabolite_Detected
Drug metabolism [3]: Metabolite_Detected
Drug metabolism [4]: Metabolite_Detected
Drug metabolism [5]: Metabolite_Detected
Drug metabolism [6]: Metabolite_Detected
Drug metabolism [7]: Metabolite_Detected
Drug metabolism [8]: Metabolite_Detected

Cc1cn([C@H]2C=C[C@@H](COP(=O)(O)OP(=O)(O)OP(=O)(O)OP(=O)(O)O)O2)c(=O)[nH]c1=O
Retention_time [1]: 10.2 min
selectivity ratio [9]: 454

CCCCCCCCCCCCCCCCCCP(=O)(OCc1ccc(OC(=O)CCCC)cc1)OP(=O)(O)OP(=O)(O)OC[C@@H]1C=C[C@H](n2cc(C)c(=O)[nH]c2=O)O1 (stereo partly drawn)
selectivity ratio [9]: 452
EC50 [10]: 7 nM
half-life [11]: 646 h
EC50 [12]: 42 nM
EC50 [13]: 21 nM

CCCCCCCCCCCCCCCCOC(=O)Oc1ccc(COP(=O)(OCc2ccc(OC(=O)CCCC)cc2)OP(=O)(O)OP(=O)(O)OP(=O)(O)OC[C@@H]2C=C[C@H](n3cc(C)c(=O)[nH]c3=O)O2)cc1 (stereo partly drawn)
Retention_time [1]: 16 min

CCCCCCCCCCCCCCCCCCP(=O)(OCC(CC)CCCC)OP(=O)(O)OP(=O)(O)OP(=O)(O)OC[C@@H]1C=C[C@H](n2cc(C)c(=O)[nH]c2=O)O1 (stereo partly drawn)
Retention_time [1]: 15.1 min

CCCCOP(=O)(OCCCC)OP(=O)(O)OP(=O)(O)OP(=O)(O)OC[C@@H]1C=C[C@H](n2cc(C)c(=O)[nH]c2=O)O1
Retention_time [1]: 10.2 min

Cc1cn([C@H]2C=C[C@@H](CO)O2)c(=O)[nH]c1=O [STAVUDINE]
selectivity ratio [9]: 1
selectivity ratio [14]: 1

CCCCCCCCCCCCCCCCCCOP(=O)(OCCCC)OP(=O)(O)OP(=O)(O)OP(=O)(O)OC[C@@H]1C=C[C@H](n2cc(C)c(=O)[nH]c2=O)O1 (stereo partly drawn)
Retention_time [1]: 14.5 min
t1/2 [15]: 0.633 h
Drug metabolism [4]: Metabolite_Detected
Drug metabolism [5]: Metabolite_Detected
Drug metabolism [16]: Metabolite_Detected

CCCCCCCCCCCCCCCCCCP(=O)(O)OP(=O)(O)OP(=O)(O)OP(=O)(O)OC[C@@H]1C=C[C@H](n2cc(C)c(=O)[nH]c2=O)O1
Retention_time [1]: 13.2 min
selectivity ratio [9]: 105

CCCCCCCCCCCCOP(=O)(OCCCCCCCCCCCC)OP(=O)(O)OP(=O)(O)OP(=O)(O)OC[C@@H]1C=C[C@H](n2cc(C)c(=O)[nH]c2=O)O1
Retention_time [1]: 14.7 min

CCCCCCCCCCCCCCCCCCOP(=O)(OCCCCCCCCCCCCCCCCCC)OP(=O)(O)OP(=O)(O)OP(=O)(O)OC[C@@H]1C=C[C@H](n2cc(C)c(=O)[nH]c2=O)O1
Retention_time [1]: 20.7 min

CCCCCCCCCCCCCCCCCCOP(=O)(OCc1ccc(OC(=O)CCCC)cc1)OP(=O)(O)OP(=O)(O)OC[C@@H]1C=C[C@H](n2cc(C)c(=O)[nH]c2=O)O1 (stereo partly drawn)
CC50 [17]: 13000 nM
selectivity ratio [9]: 76
EC50 [10]: 180 nM
half-life [11]: 237 h
EC50 [12]: 170 nM
EC50 [13]: 160 nM

CCCCCCCCCC(=O)Oc1ccc(COP(=O)(OCc2ccc(OC(=O)CCCCCCCCC)cc2)OP(=O)(O)OP(=O)(O)OC[C@@H]2C=C[C@H](n3cc(C)c(=O)[nH]c3=O)O2)cc1
Retention_time [1]: 16.3 min
half-life [18]: 4.92 min
half-life [11]: 44 h
half-life [19]: 2.8 h

CCCCCCCCCCCCCCCCCCP(=O)(OCCCC)OP(=O)(O)OP(=O)(O)OP(=O)(O)OC[C@@H]1C=C[C@H](n2cc(C)c(=O)[nH]c2=O)O1 (stereo partly drawn)
Drug metabolism [20]: Metabolite_Notdetected
Drug metabolism [21]: Metabolite_Notdetected
Retention_time [1]: 14.4 min
t1/2 [15]: 0.633 h
Drug metabolism [3]: Metabolite_Notdetected
Drug metabolism [4]: Metabolite_Detected
Drug metabolism [5]: Metabolite_Detected
Drug metabolism [22]: Metabolite_Notdetected
Drug metabolism [23]: Metabolite_Notdetected
Drug metabolism [16]: Metabolite_Detected

CCCCCCCCCCCCCCCCCCP(=O)(OCc1ccc(OC(=O)CCCC)cc1)OP(=O)(O)OP(=O)(O)OP(=O)(O)OC[C@@H]1C=C[C@H](n2cc(C)c(=O)[nH]c2=O)O1 (stereo partly drawn)
Retention_time [1]: 15.2 min
Drug metabolism [4]: Metabolite_Detected
Drug metabolism [24]: Metabolite_Detected
Drug metabolism [5]: Metabolite_Detected
Drug metabolism [6]: Metabolite_Detected
Drug metabolism [25]: Metabolite_Detected
EC50 [12]: 6 nM

CCCCCCCCCC(=O)Oc1ccc(COP(=O)(OCc2ccc(OC(=O)CCCCCCCCC)cc2)OP(=O)(O)OP(=O)(O)OP(=O)(O)OC[C@@H]2C=C[C@H](n3cc(C)c(=O)[nH]c3=O)O2)cc1
Retention_time [1]: 15.2 min
Drug metabolism [26]: Metabolite_Detected
Drug metabolism [27]: Metabolite_Detected
t1/2 [15]: 0.633 h
Drug metabolism [2]: Metabolite_Detected
t1/2 [28]: 0.367 h
Drug metabolism [4]: Metabolite_Detected
Drug metabolism [29]: Metabolite_Detected
Drug metabolism [30]: Metabolite_Detected

CCCCCCCCCCCCCCCCCCOP(=O)(OCCCC)OP(=O)(O)OP(=O)(O)OC[C@@H]1C=C[C@H](n2cc(C)c(=O)[nH]c2=O)O1 (stereo partly drawn)
EC50 [10]: 70 nM
EC50 [12]: 32 nM
EC50 [13]: 41 nM

CCCCCCCCCCCCCCCCCCP(=O)(OCCCC)OP(=O)(O)OP(=O)(O)OC[C@@H]1C=C[C@H](n2cc(C)c(=O)[nH]c2=O)O1 (stereo partly drawn)
EC50 [10]: 31 nM
EC50 [12]: 18 nM
EC50 [13]: 35 nM
